PubChem BioAssay AID1963966 (Molecular Pharmacology Branch, DTP, NCI, 2024)

Test system: 935938-334-R-J1-PDC spheroids with HUVEC/MSC, viability
Assay: Anticancer human tumor 935938-334-R-J1-PDC patient-derived small intestine adenocarcinoma cell line growth inhibition [PI3K]
Conditions: for IC50: curve of first compound; for viability, T/C: stronger effect = lower value
Summary of the method: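 We assembled tumor spheroids that included a stromal compartment of HUVEC and MSCs, then exposed them to targeted agents alone and together with PI3K pathway inhibitors. Concentration series descended by half-log from clinically achievable Cmax levels. Viability served as the endpoint.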

[1] = second compound 0.0316 µM, first compound 0.0316 µM
[2] = second compound 0.0316 µM, first compound 0.1 µM
[3] = second compound 0.0316 µM, first compound 0.316 µM
[4] = second compound 0.0316 µM, first compound 1 µM
[5] = second compound 0.0316 µM, first compound 3.16 µM
[6] = second compound 0.0316 µM, first compound 10 µM
[7] = second compound 0.1 µM, first compound 0.0316 µM
[8] = second compound 0.1 µM, first compound 0.1 µM
[9] = second compound 0.1 µM, first compound 0.316 µM
[10] = second compound 0.1 µM, first compound 1 µM
[11] = second compound 0.1 µM, first compound 3.16 µM
[12] = second compound 0.1 µM, first compound 10 µM
[13] = second compound 0.316 µM, first compound 0.0316 µM
[14] = second compound 0.316 µM, first compound 0.1 µM
[15] = second compound 0.316 µM, first compound 0.316 µM
[16] = second compound 0.316 µM, first compound 1 µM
[17] = second compound 0.316 µM, first compound 3.16 µM
[18] = second compound 0.316 µM, first compound 10 µM
[19] = second compound 1 µM, first compound 0.0316 µM
[20] = second compound 1 µM, first compound 0.1 µM
[21] = second compound 1 µM, first compound 0.316 µM
[22] = second compound 1 µM, first compound 1 µM
[23] = second compound 1 µM, first compound 3.16 µM
[24] = second compound 1 µM, first compound 10 µM
[25] = second compound 3.16 µM, first compound 0.0316 µM
[26] = second compound 3.16 µM, first compound 0.1 µM
[27] = second compound 3.16 µM, first compound 0.316 µM
[28] = second compound 3.16 µM, first compound 1 µM
[29] = second compound 3.16 µM, first compound 3.16 µM
[30] = second compound 3.16 µM, first compound 10 µM
[31] = second compound 10 µM, first compound 0.0316 µM
[32] = second compound 10 µM, first compound 0.1 µM
[33] = second compound 10 µM, first compound 0.316 µM
[34] = second compound 10 µM, first compound 1 µM
[35] = second compound 10 µM, first compound 3.16 µM
[36] = second compound 10 µM, first compound 10 µM
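Also: compound exposure lasted seven days before viability was read.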
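For viability, T/C in this document: percent of vehicle DMSO treated spheroid viability so 100% = untreated.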

For `C=CC(=O)N1CCN(c2nc(=O)n(-c3c(C)ccnc3C(C)C)c3nc(-c4c(O)cccc4F)c(F)cc23)C(C)C1` (stereo unspecified) + Cc1nc(NC(=O)N2CCCC2C(N)=O)sc1-c1ccnc(C(C)(C)C(F)(F)F)c1, the IC50 (second compound 0.0316 µM) was > 10 µM, the IC50 (second compound 0.1 µM) was > 10 µM and the IC50 (second compound 0.316 µM) was > 10 µM. For the same compound, the IC50 (second compound 1 µM) was > 10 µM, the IC50 (second compound 3.16 µM) was > 10 µM and the IC50 (second compound 10 µM) was < 0.0316 µM. For the same compound, the viability, T/C [1] was 73%, the viability, T/C [2] was 92.1% and the viability, T/C [3] was 88%. For the same compound, the viability, T/C [4] was 98.7%, the viability, T/C [5] was 85.7% and the viability, T/C [6] was 86.8%. The viability, T/C [7] was 79.2%, the viability, T/C [8] was 76.2% and the viability, T/C [9] was 91.2%. It also gave a viability, T/C [10] of 60.7%, a viability, T/C [11] of 79.5% and a viability, T/C [12] of 95.8%. The viability, T/C [13] was 91%, the viability, T/C [14] was 96% and the viability, T/C [15] was 74.2%. It also gave a viability, T/C [16] of 69.5%, a viability, T/C [17] of 72.7% and a viability, T/C [18] of 92.3%. The viability, T/C [19] was 68.4%, the viability, T/C [20] was 64% and the viability, T/C [21] was 60.5%. It also gave a viability, T/C [22] of 68.7%, a viability, T/C [23] of 77.3% and a viability, T/C [24] of 47.4%. It also gave a viability, T/C [25] of 48.4%, a viability, T/C [26] of 55.1% and a viability, T/C [27] of 45.1%. It also gave a viability, T/C [28] of 57.1%, a viability, T/C [29] of 64.7% and a viability, T/C [30] of 42.5%. For the same compound, the viability, T/C [31] was 43.2%, the viability, T/C [32] was 40.1% and the viability, T/C [33] was 47.3%. The viability, T/C [34] was 36.5%, the viability, T/C [35] was 35% and the viability, T/C [36] was 32.2%.

For `CC(Cn1ccc(-c2ccc(C#N)c(Cl)c2)n1)NC(=O)c1cc(C(C)O)[nH]n1` (stereo unspecified) + Cc1nc(NC(=O)N2CCCC2C(N)=O)sc1-c1ccnc(C(C)(C)C(F)(F)F)c1, the IC50 (second compound 0.0316 µM) was > 10 µM, the IC50 (second compound 0.1 µM) was > 10 µM and the IC50 (second compound 0.316 µM) was > 10 µM. For the same compound, the IC50 (second compound 1 µM) was > 10 µM, the IC50 (second compound 3.16 µM) was 0.4 µM and the IC50 (second compound 10 µM) was < 0.0316 µM. It also gave a viability, T/C [1] of 81.8%, a viability, T/C [2] of 101% and a viability, T/C [3] of 89.8%. For the same compound, the viability, T/C [4] was 91%, the viability, T/C [5] was 104% and the viability, T/C [6] was 78.3%. The viability, T/C [7] was 109%, the viability, T/C [8] was 72.3% and the viability, T/C [9] was 99.4%. For the same compound, the viability, T/C [10] was 77.2%, the viability, T/C [11] was 97.6% and the viability, T/C [12] was 75.6%. For the same compound, the viability, T/C [13] was 81.8%, the viability, T/C [14] was 81.6% and the viability, T/C [15] was 58.5%. The viability, T/C [16] was 82%, the viability, T/C [17] was 75.5% and the viability, T/C [18] was 84.8%. The viability, T/C [19] was 79.2%, the viability, T/C [20] was 79.6% and the viability, T/C [21] was 62.3%. The viability, T/C [22] was 65%, the viability, T/C [23] was 64.6% and the viability, T/C [24] was 47.7%. It also gave a viability, T/C [25] of 62.7%, a viability, T/C [26] of 61% and a viability, T/C [27] of 50.3%. The viability, T/C [28] was 44.3%, the viability, T/C [29] was 59.4% and the viability, T/C [30] was 43.9%. For the same compound, the viability, T/C [31] was 46.3%, the viability, T/C [32] was 42.6% and the viability, T/C [33] was 52.3%. For the same compound, the viability, T/C [34] was 51.8%, the viability, T/C [35] was 44.3% and the viability, T/C [36] was 40%.

Work on `Cn1nccc1Nc1nccc(-c2ccn(C(CO)c3ccc(Cl)c(F)c3)c(=O)c2)n1` (stereo unspecified) + Cc1nc(NC(=O)N2CCCC2C(N)=O)sc1-c1ccnc(C(C)(C)C(F)(F)F)c1 yielded an IC50 (second compound 0.0316 µM) of 0.805 µM, an IC50 (second compound 0.1 µM) of 0.973 µM and an IC50 (second compound 0.316 µM) of 0.315 µM. The IC50 (second compound 1 µM) was 0.211 µM, the IC50 (second compound 3.16 µM) was 0.0468 µM and the IC50 (second compound 10 µM) was < 0.0316 µM. For the same compound, the viability, T/C [1] was 92.1%, the viability, T/C [2] was 80.5% and the viability, T/C [3] was 61%. The viability, T/C [4] was 48.5%, the viability, T/C [5] was 36.2% and the viability, T/C [6] was 31.6%. For the same compound, the viability, T/C [7] was 100%, the viability, T/C [8] was 73.5% and the viability, T/C [9] was 62%. The viability, T/C [10] was 53.4%, the viability, T/C [11] was 38.6% and the viability, T/C [12] was 25.1%. It also gave a viability, T/C [13] of 94.1%, a viability, T/C [14] of 71% and a viability, T/C [15] of 48.2%. It also gave a viability, T/C [16] of 39.3%, a viability, T/C [17] of 25% and a viability, T/C [18] of 25.6%. The viability, T/C [19] was 62.2%, the viability, T/C [20] was 75.7% and the viability, T/C [21] was 39.7%. For the same compound, the viability, T/C [22] was 26%, the viability, T/C [23] was 25.8% and the viability, T/C [24] was 19.2%. The viability, T/C [25] was 50.6%, the viability, T/C [26] was 51.3% and the viability, T/C [27] was 33.1%. The viability, T/C [28] was 37.4%, the viability, T/C [29] was 20.8% and the viability, T/C [30] was 18.7%. The viability, T/C [31] was 43.9%, the viability, T/C [32] was 48% and the viability, T/C [33] was 28.6%. The viability, T/C [34] was 22.2%, the viability, T/C [35] was 20.8% and the viability, T/C [36] was 19.9%.
